# Experimental data published in patent US12465618B2, “Compositions and methods for degenerative disc regeneration” (University Health Network, priority 2015, dated 2025).
# What was measured:
# [1] = test system: rat-tail injured disc NPs; experiment: Pre-clinical rodent needle puncture disc injury model of DDD, intra-discal injection; type: in vivo, Wistar rat
# Description: 12-week old female Wistar rats (Charles River Laboratories International, Inc., MA, USA) were used in order to develop a pre-clinical rodent model of DDD and to evaluate the therapeutic potential of NCCM, CTGF and TGFβ1 in these pre-clinical rodent models. Experiments were performed in accordance with the Guide for the Care and Use of Laboratory Animals, and the experimental protocols were approved by the ethics approval board of Toronto Western Hospital, Toronto, ON, Canada. The surgical procedure was as follows: Anesthesia was achieved using isofluorane (5 L/min plus 1 L/min O2) and maintained at 3 L/min. Once deeply anaesthetized, the animal was affixed on a stereotactic procedure apparatus (Model 900, Kopf Instruments California USA) with nose cone inhalation. For animal experiments, the tail was shaved and prepped with isopropanol in a sterile manner. Fluoroscopy was used to visualize needle penetration and to ensure that the needle penetrated into the center of the NP. For disc injury, a 26-gauge (G), 35° beveled, 0.75 inches high needle (Hamilton Company, USA) mounted on a Hamilton syringe was used. The needle was advanced completely through the selected tail IVD to penetrate the full thickness inclusive of the annulus fibrosus on both sides of the disc. Confirmation of needle placement was made using fluoroscopy and maintained in position for 2 minutes, withdrawn halfway to the center of the NP and left there for 1 minute and then slowly withdrawn completely over a 1-minute period. The animals were then removed from the stereotactic apparatus and allowed to recover in a warmed cage. At the end of study period i.e. 72 hrs-10 weeks, animals were humanely euthanized using CO2 and each vertebral lumbar/caudal motion segment was dissected aseptically. IVDs were either fixed in formalin for histological analysis or the nucleus pulposus (healthy/injured) was harvested and lysed in RIPA buffer (50 mM Tris, pH=7.4, 150 mM NaCl, 1% NP-40 and protease inhibitor cocktail) for western blotting.
# To determine the regenerative potential of NCCM, CTGF or TGFβ1, 4 IVDs per animal of 12 week old rats were injured using a 26G needle as described above. Four weeks post-injury, animals were randomized into groups of six and an intra-discal injection (˜8 μL) of either NCCM, CTGF (100 ng/mL) or TGFβ1 (10 ng/mL) was given under local anesthesia. For NCCM injected animals, the control group consisted of animals that received an intra-discal injection (˜8 μL) of Hybridoma culture medium only, while phosphate buffered saline (PBS, 1×, pH=7.2) served as control for CTGF and TGFβ1 injected animal groups. Six weeks later, the NPs from injured and control discs were harvested and either fixed in formalin for histological analysis or lysed in RIPA lysis buffer for western blotting. Each of this experiment was repeated independently to ensure reproducibility.
# The tissues were fixed in 10% formalin and decalcified in 10% EDTA solution. The decalcified disc was initially split in the mid sagittal plane, embedded in paraffin and 5p thick sections were obtained for histological evaluation. Hemaetoxylin and eosin (H&E) and Safranin-O staining was performed to assess general morphology and proteoglycan content in these tissue sections as previously described^16. For immunohistochemistry/immunofluorescence (IF), paraffin-embedded sections (5 μm) of human degenerative disc NP, bovine NP, healthy canines (NCD) and rat (healthy/injured) discs were deparaffinized in xylene, hydrated in gradient alcohol followed by antigen retrieval in Tris-EDTA buffer (pH=9.0). The sections were incubated with hydrogen peroxide (0.3% v/v) in methanol for 15 minutes to quench the endogenous peroxidase activity, followed by blocking with 10% serum to preclude non-specific binding. Thereafter, the slides were incubated with either rabbit or goat polyclonal/mouse monoclonal primary antibodies overnight (O/N) at 4° C. […]
# [2] = test system: bovine degenerative disc NP cells; experiment: MTT cell viability assay; type: cell-based; conditions: CTGF 100 ng/ml, TGFβ1 10 ng/ml, 48 hrs-72 hrs
# Description: (§1) Nucleus pulposus cells (rat, bovine and human) were plated in 96-well flat bottom plates in order to evaluate the effect of treatment with growth factors in cell viability and proliferation assays. Rat NP cells were treated with CTGF, WISP-2 and TGFβ1 in a dose (1 ng/mL-100 ng/mL) and time dependent manner (24 hrs-96 hrs) to determine the optimum dose and time for the assessment of these growth factors on viability. Cell viability was determined using 3-(4,5-dimethylthiazol-2-yl)-2,5-diphenyltetrazolium bromide (MTT, Sigma-Aldrich, USA) as previously described^44. A BrdU-ELISA (colorimetric) assay (Cat #ab126556, Abcam) was used for determining the effect of treatment with CTGF or TGFβ1 on human and rat NP cells (healthy/injured) following the manufacturer's instructions. Briefly, NP cells were treated with CTGF or TGFβ1 alone or in combination for 48 hrs following addition of BrdU reagent O/N in each well. Incorporated BrdU in DNA of proliferating cells was determined using anti-BrdU antibody and quantified by ELISA as per the manufacturer's instructions.
# [3] = test system: rat-tail disc NP cells (healthy/injured); experiment: MTT cell viability assay; type: cell-based; conditions: CTGF 100 ng/ml, TGFβ1 10 ng/ml, 48 hrs-72 hrs
# Description: as §1
# [4] = test system: human degenerated disc NP cells; experiment: BrdU-ELISA cell proliferation assay; type: cell-based; conditions: 72 hrs
# Description: as §1
# [5] = test system: rat NP cells (healthy/injured); experiment: BrdU-ELISA cell proliferation assay; type: cell-based; conditions: rat-tail (healthy/injured) NP cells, 72 hrs
# Description: as §1
# [6] = test system: human degenerative disc NP cells; experiment: Caspase 3/7 Lumi-Glo assay, cytokine induced; type: cell-based; conditions: 48 hrs
# Description: (§2) Apoptosis induced in NP cells (rat and human) as result of treatment with pro-inflammatory cytokines (IL-1β and TNFα) was determined using Caspase 3/7 and Caspase 9 specific Lumi-Glo assays (Promega, Madison). Briefly, NP cells were plated and treated with either IL-1β alone or in combination with TNFα only or in presence of CTGF and TGFβ1 for 48 hrs, followed by addition of specific reagents for Caspase 3/7 and Caspase 9 as per the manufacturer's instructions. Cells were incubated for another 4 hrs at 37° C., and plates were read in a multi-well luminescence plate reader.
# [7] = test system: rat degenerative disc NP cells; experiment: Caspase 3/7 Lumi-Glo assay, cytokine induced; type: cell-based; conditions: 48 hrs
# Description: as §2
# [8] = test system: human degenerative disc NP cells; experiment: Caspase 9 Lumi-Glo assay, cytokine induced; type: cell-based; conditions: 48 hrs
# Description: as §2
# [9] = rat tail injured discs, western blots, FIG. 12(b)
substance,measurement,setting,value
"TGFβ1: Human recombinant transforming growth factor beta 1, Peprotech cat #100-21, identified in NCCM",aggrecan and collagen II (immunohistochemical analysis),"[1]; intra-discal injection four weeks following injury, 10 weeks post-injury, vs vehicle control",strong expression
same,"histological analysis, Safranin-O staining of NP","[1]; intra-discal injection four weeks following injury, CTGF 100 ng/mL, TGFβ1 10 ng/mL, 10 weeks post-injury, vs PBS","healthy disc, rich in NCs"
same,expression of MMP-13 and Cox2 in NP tissue lysates,[1]; [9],decreased expression
same,stem cell marker Oct4 in NP tissue lysates,[1]; [9],restoration
same,cell viability (MTT),[2],increased the viability
same,cell viability (MTT),[3],increased the viability
same,DNA synthesis (BrdU incorporation),[4],Significant increase
same,DNA synthesis (BrdU incorporation),[5],Significant increase
same,cytokine (IL-1β and TNFα)-induced caspase 3/7 activity,[6],significant decrease
same,cytokine (IL-1β and TNFα)-induced caspase 3/7 activity,[7],significant decrease
same,IL-1β and TNFα induced caspase 9 activity,[8],significant reduction
